Results published in ChEMBL document CHEMBL3588813, “Antifungal Amphiphilic Aminoglycosides” (Medchemcomm, 2014).
≈ marks a conversion by molar mass, not a printed value.

Columns and labels:
Staphylococcus aureus [1] = assay: Antimicrobial activity against Staphylococcus aureus ATCC 25923 assessed as inhibition of bacterial growth incubated at 35 degC for 12 to 18 hrs; format: functional
Staphylococcus aureus [2] = assay: Antimicrobial activity against methicillin-resistant Staphylococcus aureus ATCC 33591 assessed as inhibition of bacterial growth incubated at 35 degC for 12 to 18 hrs; format: functional
Pseudomonas aeruginosa = assay: Antimicrobial activity against Pseudomonas aeruginosa ATCC 27853 assessed as inhibition of bacterial growth incubated at 35 degC for 12 to 18 hrs; format: functional
Enterococcus faecalis = assay: Antimicrobial activity against vancomycin-resistant Enterococcus faecalis ATCC 1299 assessed as inhibition of bacterial growth incubated at 35 degC for 12 to 18 hrs; format: functional
Escherichia coli [3] = assay: Antimicrobial activity against Escherichia coli ATCC 25922 assessed as inhibition of bacterial growth incubated at 35 degC for 12 to 18 hrs; format: functional
Fusarium graminearum [4] = assay: Antimicrobial activity against Fusarium graminearum B4-5A using RPMI medium by microbroth dilution assay; format: functional
Fusarium graminearum [5] = assay: Antimicrobial activity against Fusarium graminearum B4-5A using potato dextrose broth as growth medium and diluent; format: functional
Ulocladium = assay: Antimicrobial activity against Ulocladium spp. using potato dextrose broth as growth medium and diluent; format: functional; conditions: Alternaria sect. Ulocladium
Escherichia coli [6] = assay: Antimicrobial activity against Escherichia coli ATCC 25922 using potato dextrose broth as growth medium and diluent; format: functional
Rhodotorula mucilaginosa = assay: Antimicrobial activity against Rhodotorula piliminae using potato dextrose broth as growth medium and diluent; format: functional
Staphylococcus aureus [7] = assay: Antimicrobial activity against Staphylococcus aureus using potato dextrose broth as growth medium and diluent; format: functional
Verticillium = assay: Antimicrobial activity against Verticillium spp. using potato dextrose broth as growth medium and diluent; format: functional
[8] = Cytotoxic activity against human C8161.9 cells; format: cell-based
[9] = Induction of hemolysis in sheep erythrocytes at 313 ug/ml; format: cell-based, Ovis aries, Erythrocyte; conditions: read-out: Activity
Fusarium oxysporum = assay: Antimicrobial activity against Fusarium oxysporum using potato dextrose broth as growth medium and diluent; format: functional
Fusarium graminearum [10] = assay: Antimicrobial activity against Fusarium graminearum B4-5A infection in wheat assessed as reduction in spikelet infection rate at 30 ug/ml pre-treated 24 hrs before infection; format: functional
[11] = Selectivity index, ratio of IC50 for human C8161.9 cells to MIC for Saccharomyces cerevisiae
Fusarium graminearum [12] = assay: Antimicrobial activity against Fusarium graminearum B4-5A infecrtion in wheat assessed as Fusarium head blight disease incidence at 1080 ug/ml pre-treated 24 hrs before infection (reference value: 61%); format: functional
Rhizopus stolonifer = assay: Antimicrobial activity against Rhizopus stolonifer using potato dextrose broth as growth medium and diluent; format: functional
[13] = Cytotoxic activity against mouse NIH/3T3 cells; format: cell-based, NIH3T3
Fusarium graminearum [14] = assay: Antimicrobial activity against Fusarium graminearum B4-5A infecrtion in wheat assessed as Fusarium head blight disease incidence at 5 ug/ml pre-treated 24 hrs before infection (reference value: 61%); format: functional
Fusarium graminearum [15] = assay: Antimicrobial activity against Fusarium graminearum B4-5A infecrtion in wheat assessed as Fusarium head blight disease incidence at 180 ug/ml pre-treated 24 hrs before infection (reference value: 61%); format: functional
Fusarium graminearum [16] = assay: Antimicrobial activity against Fusarium graminearum B4-5A infection in wheat assessed as reduction in spikelet infection rate at 5 ug/ml pre-treated 24 hrs before infection; format: functional
[17] = Induction of hemolysis in sheep erythrocytes at 28 ug/ml; format: cell-based, Ovis aries, Erythrocyte; conditions: read-out: Activity
Candida albicans = assay: Antimicrobial activity against Candida albicans 10231 using potato dextrose broth as growth medium and diluent; format: functional
Microdochium nivale = assay: Antimicrobial activity against Microdochium nivale using potato dextrose broth as growth medium and diluent; format: functional
Phoma = assay: Antimicrobial activity against Phoma spp. using potato dextrose broth as growth medium and diluent; format: functional
Globisporangium ultimum = assay: Antimicrobial activity against Pythium ultimum using potato dextrose broth as growth medium and diluent; format: functional
Curvularia brachyspora = assay: Antimicrobial activity against Curvularia brachyspora using potato dextrose broth as growth medium and diluent; format: functional
[18] = Selectivity index, ratio of IC50 for mouse NIH/3T3 cells to MIC for Saccharomyces cerevisiae
[19] = test system: Cladosporium cladosporioides; assay: Antimicrobial activity against Cladosporium cladosporioides using potato dextrose broth as growth medium and diluent; format: functional
Fusarium graminearum [20] = assay: Antimicrobial activity against Fusarium graminearum […] in wheat assessed as reduction in Fusarium head blight disease incidence at 1080 ug/ml pre-treated 24 hrs before infection; format: functional
Fusarium graminearum [21] = assay: Antimicrobial activity against Fusarium graminearum B4-5A infecrtion in wheat assessed as Fusarium head blight disease incidence at 30 ug/ml pre-treated 24 hrs before infection (reference value: 61%); format: functional
Botrytis cinerea = assay: Antimicrobial activity against Botrytis cinerea using potato dextrose broth as growth medium and diluent; format: functional

Work on `CCCCCCCCCC(=O)NC[C@H]1O[C@@H](O[C@@H]2[C@@H](O)[C@H](N)C[C@H](N)[C@H]2O[C@H]2O[C@H](CN)[C@@H](O)[C@H](O)[C@H]2N)[C@H](O)[C@@H]1O[C@H]1O[C@@H](CN)[C@@H](O)[C@H](O)[C@H]1N` yielded an MIC (Staphylococcus aureus [1]) of 16 µg/mL (≈ 20.8 µM), an MIC (Staphylococcus aureus [2]) of 125 µg/mL (≈ 163 µM) and an MIC (Pseudomonas aeruginosa) of 16 µg/mL (≈ 20.8 µM). For the same compound, the MIC (Enterococcus faecalis) was 64 µg/mL (≈ 83.3 µM) and the MIC (Escherichia coli [3]) was 32 µg/mL (≈ 41.7 µM).

With `CCCCCCCCCCCCCC(=O)NC[C@H]1O[C@@H](O[C@@H]2[C@@H](O)[C@H](N)C[C@H](N)[C@H]2O[C@H]2O[C@H](CN)[C@@H](O)[C@H](O)[C@H]2N)[C@H](O)[C@@H]1O[C@H]1O[C@@H](CN)[C@@H](O)[C@H](O)[C@H]1N` the MIC (Staphylococcus aureus [1]) was 2 µg/mL (≈ 2.43 µM), the MIC (Staphylococcus aureus [2]) was 4 µg/mL (≈ 4.85 µM) and the MIC (Pseudomonas aeruginosa) was 8 µg/mL (≈ 9.71 µM). For the same compound, the MIC (Enterococcus faecalis) was 8 µg/mL (≈ 9.71 µM) and the MIC (Escherichia coli [3]) was 8 µg/mL (≈ 9.71 µM).

With `CCCCCCCCCCC(=O)OCC[C@H]1O[C@H](O[C@@H]2[C@@H](O)[C@H](O[C@H]3O[C@H](CN)[C@@H](O)[C@H](O)[C@H]3N)[C@@H](N)C[C@H]2N)[C@H](O)[C@@H](N)[C@@H]1O` the MIC (Fusarium graminearum [4]) was 62.5 µg/mL (≈ 93.9 µM).

Work on `CCCCCCCCSCC[C@H]1O[C@H](O[C@@H]2[C@@H](O)[C@H](O[C@H]3O[C@H](CN)[C@@H](O)[C@H](O)[C@H]3N)[C@@H](N)C[C@H]2N)[C@H](O)[C@@H](N)[C@@H]1O` yielded an MIC (Fusarium graminearum [4]) of 15.6 µg/mL (≈ 24.9 µM).

With `Cc1ccc(S(=O)(=O)OCC[C@H]2O[C@H](O[C@@H]3[C@@H](O)[C@H](O[C@H]4O[C@H](CN)[C@@H](O)[C@H](O)[C@H]4O)[C@@H](N)C[C@H]3N)[C@H](O)[C@@H](N)[C@@H]2O)cc1` the MIC (Fusarium graminearum [4]) was over 500 µg/mL.

`CCCCO[C@H]1[C@H](N)[C@@H](O)[C@@H](O[C@@H]2[C@@H](O)[C@H](O[C@H]3O[C@H](CN)[C@@H](O)[C@H](O)[C@H]3N)[C@@H](N)C[C@H]2N)O[C@@H]1C` gave an MIC (Fusarium graminearum [4]) of over 500 µg/mL and an MIC (Fusarium graminearum [5]) of over 500 µg/mL.

With `CCCCCCCCCCCCO[C@H]1[C@H](N)[C@@H](O)[C@@H](O[C@@H]2[C@@H](O)[C@H](O[C@H]3O[C@H](CN)[C@@H](O)[C@H](O)[C@H]3N)[C@@H](N)C[C@H]2N)O[C@@H]1C` the MIC (Fusarium graminearum [4]) was over 500 µg/mL and the MIC (Fusarium graminearum [5]) was over 500 µg/mL.

Compound `CCCCCCCCO[C@H]1[C@H](N)[C@@H](O)[C@@H](O[C@@H]2[C@@H](O)[C@H](O[C@H]3O[C@H](CN)[C@@H](O)[C@H](O)[C@H]3N)[C@@H](N)C[C@H]2N)O[C@@H]1C` has an MIC (Ulocladium) of 7.8 µg/mL (≈ 13.5 µM), an MIC (Escherichia coli [6]) of 250 µg/mL (≈ 431 µM) and an MIC (Rhodotorula mucilaginosa) of 7.8 µg/mL (≈ 13.5 µM). The MIC (Fusarium graminearum [4]) was 31.5 µg/mL (≈ 54.3 µM), the MIC (Fusarium graminearum [5]) was 7.8 µg/mL (≈ 13.5 µM) and the MIC (Staphylococcus aureus [7]) was 62.5 µg/mL (≈ 108 µM). For the same compound, the MIC (Verticillium) was 15.2 µg/mL (≈ 26.2 µM), the IC50 ([8]; Homo sapiens) was over 250 µg/mL and the Activity ([8]; human) was “Dose-dependent effect”. It also gave a hemolysis at 313 ug/ml [9] of over 20%, an MIC (Fusarium oxysporum) of 7.8 µg/mL (≈ 13.5 µM) and an inhibition at 30 µg/mL (Fusarium graminearum [10]) of 49%. The “Selectivity Index” value [11] was 10, the Activity (Fusarium graminearum [12]) was 80% and the MIC (Rhizopus stolonifer) was 31.3 µg/mL (≈ 54 µM). The IC50 ([13]; Mus musculus, NIH3T3) was over 250 µg/mL, the Activity ([13]; mouse, nih3t3) was “Dose-dependent effect” and the Activity (Fusarium graminearum [14]) was 76%. It also gave an Activity (Fusarium graminearum [15]) of 76%, an inhibition at 5 µg/mL (Fusarium graminearum [16]) of 29% and a hemolysis at 28 ug/ml [17] of 2%. For the same compound, the MIC (Candida albicans) was 31.3 µg/mL (≈ 54 µM), the MIC (Microdochium nivale) was 3.9 µg/mL (≈ 6.73 µM) and the MIC (Phoma) was 31.3 µg/mL (≈ 54 µM). For the same compound, the MIC (Globisporangium ultimum) was 15.6 µg/mL (≈ 26.9 µM), the MIC (Curvularia brachyspora) was 31.3 µg/mL (≈ 54 µM) and the “Selectivity Index” value [18] was 10. The MIC [19] was 31.3 µg/mL (≈ 54 µM), the inhibition at 1080 µg/mL (Fusarium graminearum [20]) was 82% and the Activity (Fusarium graminearum [21]) was 70%. It also gave an MIC (Botrytis cinerea) of 31.3 µg/mL (≈ 54 µM).

For `NC[C@@H]1O[C@H](O[C@H]2[C@@H](O)[C@H](O[C@@H]3[C@@H](O)[C@H](N)C[C@H](N)[C@H]3O[C@H]3O[C@H](CN)[C@@H](O)[C@H](O)[C@H]3N)O[C@@H]2Cn2cc(CNC(=O)c3cc(-c4ccccc4)nc4ccccc34)nn2)[C@H](N)[C@@H](O)[C@@H]1O`, the MIC (Staphylococcus aureus [1]) was 8 µg/mL (≈ 8.64 µM) and the MIC (Escherichia coli [3]) was 32 µg/mL (≈ 34.6 µM).

`CCCCCCC(=O)NC[C@H]1O[C@@H](O[C@@H]2[C@@H](O)[C@H](N)C[C@H](N)[C@H]2O[C@H]2O[C@H](CN)[C@@H](O)[C@H](O)[C@H]2N)[C@H](O)[C@@H]1O[C@H]1O[C@@H](CN)[C@@H](O)[C@H](O)[C@H]1N` gave an MIC (Staphylococcus aureus [1]) of 2 µg/mL (≈ 2.76 µM), an MIC (Staphylococcus aureus [2]) of 125 µg/mL (≈ 172 µM) and an MIC (Fusarium graminearum [4]) of 62.5 µg/mL (≈ 86.1 µM). It also gave an MIC (Pseudomonas aeruginosa) of at least 250 µg/mL, an MIC (Enterococcus faecalis) of at least 250 µg/mL and an MIC (Escherichia coli [3]) of 16 µg/mL (≈ 22 µM).
